Test results from patent US9962465B2, “Amelogenin-chitosan hydrogel for dentin hypersensitivity” (UNIVERSITY OF SOUTHERN CALIFORNIA, priority 2015, dated 2018).

Legend:
[1] = Nanoindentation test of the newly regenerated layer (modulus, hardness); parameters: species or system Human; settings: for mechanical properties of the newly formed layer compared with healthy dentin: peptide only treatment; for surface hardness of dentin lesions: peptide only, 5 days
Method: Human third molars were sectioned transversally into 2 mm thick slices at the mid-coronal region of the tooth. A window of sound dentin measuring 2×2 mm each was delineated by applying two coats of acid-resistant nail varnish on the tooth surfaces. To mimic carious lesions, the samples were immersed in a demineralizing solution (pH 4.6, 30 ml) at 37° C. for 3 days. Twenty μl of peptide only (LRAP, P32, P26) and peptide-chitosan hydrogel (200 μg/ml) were applied separately on the demineralized windows (2 applications: Days 1 & 5) and the tooth slices were immersed in artificial saliva (pH 7, 5 ml) at 37° C. for 5 and 10 days. The artificial saliva includes 1.2 mM Ca^2+, 0.2 mM Mg^2+ 0.7 mM H2PO4^−, 16 mM KCl, 4.5 mM NH4Cl and 50 mM Hepes in water. The artificial saliva solution (5 ml) was changed daily from days 1-10.
FIGS. 18A, 18B, 18C, and 18D provide nanoindentation test results showing changes in the modulus (A,B) and hardness (C, D) of the newly regenerated layer after being treated with peptide only and peptide-chitosan hydrogel for 5 and 10 days. Treatment with LRAP and P32 restored surface hardness of dentin lesions in 5 days.

[2] = TEM of peptide self-assembly; assay type: physicochemical; settings: pH 7.4, HEPES buffer, 25° C.
Source text: (Ref: doi:10.1016/j.jsb.2011.07.016).

| Sequence | mechanical properties of the newly formed layer compared with healthy dentin [1] | surface hardness of dentin lesions [1] | TEM assembly morphology [2] |
| --- | --- | --- | --- |
| MPLPPHPGHPGYINFSYEVLTPLKWYQSIRPPPLPPMLPDLTLEAWPSTDKTKREEVD (listed as Homo sapiens) [LRAP, leucine rich amelogenin polypeptide, alternatively spliced isoform of amelogenin] | superior mechanical properties than healthy dentin | restored | – |
| MPLPSYEVLTPLKWPVHPMQPSTDKTKREEVD (Amelogenin-derived polypeptide) [Peptide P32, Artificial amelogenin-derived polypeptide] | superior mechanical properties than healthy dentin | restored | uniformly-dispersed spherical assemblies |
